Experimental data reported in ChEMBL document CHEMBL1909046, “DrugMatrix in vitro pharmacology data”.
pIC50, pKi: −log10 of the molar value.

Assays:
[1] = biological target: Aldo-keto reductase family 1 member B1 (Rattus norvegicus, UniProt P07943); format: tissue-based, Lens of camera-type eye;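 further: inhibition of aldose reductase enzyme activity, measured with DL-glyceraldehyde as the substrate; in other assays of this panel Not Active means under 50% inhibition at 10 µM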
[2] = biological target: Tyrosine-protein kinase Fyn (Homo sapiens, UniProt P06241); assay: biochemical; format: cell-based, Insect cells; details: insect cells;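 further: enzymatic inhibition of Fyn kinase activity measured with Poly(Glu:Tyr) as the phosphorylation substrate; in other assays of this panel Not Active means under 50% inhibition at 10 µM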
Cytochrome P450 2C19 = Cytochrome P450 2C19 (Homo sapiens, UniProt P33261); details: bti-tn-5b1-4; further: in other assays of this panel Not Active means under 50% inhibition at 10 µM
[3] = biological target: 5-hydroxytryptamine receptor 6 (Homo sapiens, UniProt P50406); format: cell membranes, HeLa, Membrane; details: hela; further: in other assays of this panel Not Active means under 50% inhibition at 10 µM
[4] = biological target: T1, Alpha-2A adrenergic receptor (Homo sapiens, UniProt P08913); format: cell membranes, Sf9, Membrane; details: for IC50: sf9; for pIC50: read-out: IC50; for pKi: read-out: Ki
T1 sequence (P08913 whole entry): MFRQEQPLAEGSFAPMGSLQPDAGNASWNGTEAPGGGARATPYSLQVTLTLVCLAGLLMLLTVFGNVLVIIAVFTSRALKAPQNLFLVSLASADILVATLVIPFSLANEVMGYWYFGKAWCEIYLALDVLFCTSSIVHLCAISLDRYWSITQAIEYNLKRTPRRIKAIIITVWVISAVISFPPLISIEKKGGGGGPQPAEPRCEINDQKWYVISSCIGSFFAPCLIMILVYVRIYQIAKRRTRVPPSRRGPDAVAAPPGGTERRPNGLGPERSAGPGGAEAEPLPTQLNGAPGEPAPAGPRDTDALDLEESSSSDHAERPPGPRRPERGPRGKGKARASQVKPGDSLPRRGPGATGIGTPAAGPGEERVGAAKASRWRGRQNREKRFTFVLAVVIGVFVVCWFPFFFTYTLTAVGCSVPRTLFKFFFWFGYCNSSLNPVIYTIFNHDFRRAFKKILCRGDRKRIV

[5] = biological target: T2, Muscarinic acetylcholine receptor M2 (Homo sapiens, UniProt P08172); format: cell membranes, CHO-K1, Membrane; details: cho-k1; further: in other assays of this panel Not Active means under 50% inhibition at 10 µM
T2 sequence (P08172 whole entry): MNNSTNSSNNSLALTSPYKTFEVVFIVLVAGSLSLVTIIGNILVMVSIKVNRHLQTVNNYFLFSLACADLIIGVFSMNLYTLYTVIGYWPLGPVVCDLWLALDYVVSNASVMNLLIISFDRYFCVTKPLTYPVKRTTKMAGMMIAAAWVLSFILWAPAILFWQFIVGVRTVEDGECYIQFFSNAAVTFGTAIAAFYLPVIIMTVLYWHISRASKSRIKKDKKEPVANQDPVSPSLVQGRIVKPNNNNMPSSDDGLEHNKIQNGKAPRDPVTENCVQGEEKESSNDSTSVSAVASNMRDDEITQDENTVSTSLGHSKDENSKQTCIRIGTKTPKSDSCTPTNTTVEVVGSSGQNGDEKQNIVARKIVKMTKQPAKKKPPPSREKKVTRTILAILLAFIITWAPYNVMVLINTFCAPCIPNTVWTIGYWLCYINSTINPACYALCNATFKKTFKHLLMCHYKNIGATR

[6] = DRUGMATRIX: Calcium Channel Type L, Dihydropyridine radioligand binding (ligand: [3H] Nitrendipine); format: cell membranes, Rattus norvegicus, Wistar, Cerebral cortex, Membrane; details: Not Active = under 50% inhibition at 10 µM
Cytochrome P450 2E1 = Cytochrome P450 2E1 (Homo sapiens, UniProt P05181); details: bti-tn-5b1-4; further: in other assays of this panel Not Active means under 50% inhibition at 10 µM
[7] = biological target: T3, 5-hydroxytryptamine receptor 2C (Homo sapiens, UniProt P28335); assay: DRUGMATRIX: Serotonin (5-Hydroxytryptamine) 5-HT2C radioligand binding (ligand: [3H] Mesulergine); format: cell membranes, CHO-K1, Membrane; details: Not Active = under 50% inhibition at 10 µM; for IC50: cho-k1; for pIC50: read-out: IC50; for pKi: read-out: Ki
T3 sequence (P28335 whole entry): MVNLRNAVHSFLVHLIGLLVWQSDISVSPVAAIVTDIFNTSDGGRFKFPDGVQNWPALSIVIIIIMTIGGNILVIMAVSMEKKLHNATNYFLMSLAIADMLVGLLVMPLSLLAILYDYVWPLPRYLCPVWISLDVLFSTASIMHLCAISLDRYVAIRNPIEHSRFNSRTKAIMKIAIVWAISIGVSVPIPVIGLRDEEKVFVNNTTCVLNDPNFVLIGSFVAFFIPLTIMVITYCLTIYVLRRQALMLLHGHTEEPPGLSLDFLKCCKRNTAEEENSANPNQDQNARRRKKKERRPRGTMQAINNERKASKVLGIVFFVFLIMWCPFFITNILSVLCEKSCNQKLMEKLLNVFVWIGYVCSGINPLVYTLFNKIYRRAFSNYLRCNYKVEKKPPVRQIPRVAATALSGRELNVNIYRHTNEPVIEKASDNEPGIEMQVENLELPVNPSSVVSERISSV

Melanocortin receptor 4 = Melanocortin receptor 4 (Homo sapiens, UniProt P32245); format: cell membranes, Membrane; details: hek293; further: in other assays of this panel Not Active means under 50% inhibition at 10 µM
[8] = biological target: T4, 3-hydroxy-3-methylglutaryl-coenzyme A reductase (Homo sapiens, UniProt P04035); set-up: species or system Escherichia coli
T4 sequence (P04035 whole entry): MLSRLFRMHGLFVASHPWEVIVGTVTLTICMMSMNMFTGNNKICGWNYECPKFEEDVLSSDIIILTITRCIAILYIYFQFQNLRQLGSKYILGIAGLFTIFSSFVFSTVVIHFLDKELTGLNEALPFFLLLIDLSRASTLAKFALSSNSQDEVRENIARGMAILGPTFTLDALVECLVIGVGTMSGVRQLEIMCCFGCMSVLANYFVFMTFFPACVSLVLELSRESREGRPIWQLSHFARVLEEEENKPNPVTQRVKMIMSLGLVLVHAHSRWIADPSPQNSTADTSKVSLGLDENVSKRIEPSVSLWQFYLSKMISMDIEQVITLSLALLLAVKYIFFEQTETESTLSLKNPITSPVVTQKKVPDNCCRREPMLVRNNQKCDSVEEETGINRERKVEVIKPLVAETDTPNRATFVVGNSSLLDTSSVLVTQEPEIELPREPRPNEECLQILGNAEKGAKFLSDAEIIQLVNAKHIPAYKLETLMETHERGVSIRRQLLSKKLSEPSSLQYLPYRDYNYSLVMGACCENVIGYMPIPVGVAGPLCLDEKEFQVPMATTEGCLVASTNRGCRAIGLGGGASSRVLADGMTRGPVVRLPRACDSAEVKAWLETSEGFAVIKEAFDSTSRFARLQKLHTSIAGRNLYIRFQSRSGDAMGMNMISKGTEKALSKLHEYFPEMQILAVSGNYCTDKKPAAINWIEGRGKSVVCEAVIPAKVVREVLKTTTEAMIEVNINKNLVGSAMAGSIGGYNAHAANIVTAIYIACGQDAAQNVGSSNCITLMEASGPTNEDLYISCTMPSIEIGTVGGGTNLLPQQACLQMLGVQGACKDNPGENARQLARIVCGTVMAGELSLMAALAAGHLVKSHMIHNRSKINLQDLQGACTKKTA

Melanocortin receptor 4, sequence (P32245 whole entry): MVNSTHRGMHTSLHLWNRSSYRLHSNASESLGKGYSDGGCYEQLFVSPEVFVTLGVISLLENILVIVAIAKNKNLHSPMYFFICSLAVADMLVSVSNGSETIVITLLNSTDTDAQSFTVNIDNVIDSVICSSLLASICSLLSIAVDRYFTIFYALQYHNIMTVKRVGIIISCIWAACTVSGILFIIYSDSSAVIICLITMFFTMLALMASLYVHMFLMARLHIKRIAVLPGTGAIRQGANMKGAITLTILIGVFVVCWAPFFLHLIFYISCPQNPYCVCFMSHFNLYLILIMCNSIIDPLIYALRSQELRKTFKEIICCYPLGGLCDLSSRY
Cytochrome P450 2E1, sequence (P05181 whole entry): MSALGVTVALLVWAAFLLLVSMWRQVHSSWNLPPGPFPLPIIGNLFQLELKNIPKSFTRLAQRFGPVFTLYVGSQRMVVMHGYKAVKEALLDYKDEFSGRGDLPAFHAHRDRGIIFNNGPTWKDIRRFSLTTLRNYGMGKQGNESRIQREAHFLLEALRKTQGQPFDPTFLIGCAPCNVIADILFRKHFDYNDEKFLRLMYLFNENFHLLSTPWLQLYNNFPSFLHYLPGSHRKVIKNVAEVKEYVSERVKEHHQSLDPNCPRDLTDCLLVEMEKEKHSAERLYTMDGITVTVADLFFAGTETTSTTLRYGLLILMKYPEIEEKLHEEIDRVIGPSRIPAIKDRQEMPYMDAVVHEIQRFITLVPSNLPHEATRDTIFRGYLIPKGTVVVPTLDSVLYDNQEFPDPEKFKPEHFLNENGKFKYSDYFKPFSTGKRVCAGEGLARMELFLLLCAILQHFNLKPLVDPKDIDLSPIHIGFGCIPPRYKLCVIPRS
Cytochrome P450 2C19, sequence (P33261 whole entry): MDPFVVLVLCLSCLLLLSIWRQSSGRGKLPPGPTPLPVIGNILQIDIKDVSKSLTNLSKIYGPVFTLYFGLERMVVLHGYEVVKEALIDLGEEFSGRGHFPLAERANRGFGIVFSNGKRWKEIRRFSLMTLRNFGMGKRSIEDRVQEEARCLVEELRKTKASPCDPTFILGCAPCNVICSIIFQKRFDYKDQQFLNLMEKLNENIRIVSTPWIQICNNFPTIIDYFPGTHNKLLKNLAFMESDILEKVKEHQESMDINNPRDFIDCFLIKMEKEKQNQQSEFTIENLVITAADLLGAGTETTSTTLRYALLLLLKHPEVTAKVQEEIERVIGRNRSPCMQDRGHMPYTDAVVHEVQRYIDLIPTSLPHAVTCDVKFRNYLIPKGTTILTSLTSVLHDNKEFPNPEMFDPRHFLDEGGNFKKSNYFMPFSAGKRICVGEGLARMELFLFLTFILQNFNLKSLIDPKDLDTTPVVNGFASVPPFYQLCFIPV
5-hydroxytryptamine receptor 6, sequence (P50406 whole entry): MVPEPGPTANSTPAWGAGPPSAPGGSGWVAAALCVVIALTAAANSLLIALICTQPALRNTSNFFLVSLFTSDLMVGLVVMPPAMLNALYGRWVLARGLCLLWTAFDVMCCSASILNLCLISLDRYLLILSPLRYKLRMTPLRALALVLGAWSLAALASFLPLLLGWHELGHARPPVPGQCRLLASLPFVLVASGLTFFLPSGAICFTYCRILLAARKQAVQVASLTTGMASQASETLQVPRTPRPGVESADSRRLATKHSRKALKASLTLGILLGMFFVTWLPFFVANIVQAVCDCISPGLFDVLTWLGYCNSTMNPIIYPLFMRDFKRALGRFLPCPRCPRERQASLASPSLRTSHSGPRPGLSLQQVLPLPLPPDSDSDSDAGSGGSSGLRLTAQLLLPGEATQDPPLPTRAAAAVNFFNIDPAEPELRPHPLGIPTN
Tyrosine-protein kinase Fyn, sequence (P06241 whole entry): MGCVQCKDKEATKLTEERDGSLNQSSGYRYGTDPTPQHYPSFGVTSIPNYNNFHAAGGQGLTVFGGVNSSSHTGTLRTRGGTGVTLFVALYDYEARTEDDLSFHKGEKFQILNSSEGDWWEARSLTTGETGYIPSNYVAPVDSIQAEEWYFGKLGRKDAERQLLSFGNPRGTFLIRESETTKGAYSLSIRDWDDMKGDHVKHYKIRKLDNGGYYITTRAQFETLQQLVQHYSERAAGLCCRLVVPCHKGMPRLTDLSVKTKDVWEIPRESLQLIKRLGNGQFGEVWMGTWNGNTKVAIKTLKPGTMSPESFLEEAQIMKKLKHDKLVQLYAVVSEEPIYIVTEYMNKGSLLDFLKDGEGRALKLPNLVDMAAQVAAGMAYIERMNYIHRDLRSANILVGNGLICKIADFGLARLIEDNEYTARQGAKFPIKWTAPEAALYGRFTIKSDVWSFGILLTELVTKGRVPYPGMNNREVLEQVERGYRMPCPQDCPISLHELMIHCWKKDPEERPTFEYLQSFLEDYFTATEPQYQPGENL

Compound	IC50 [1]	IC50 [2]	IC50 (Cytochrome P450 2C19)	Ki (Cytochrome P450 2C19)	IC50 [3]	IC50 [4]	IC50 [5]	IC50 [6]	Ki [6]	IC50 (Cytochrome P450 2E1)	Ki (Cytochrome P450 2E1)	IC50 [7]	IC50 (Melanocortin receptor 4)	IC50 [8]	pIC50 [4]	pKi [4]	pIC50 [7]	pKi [7]
CC1=Nc2ccc(Cl)cc2S(=O)(=O)N1 [DIAZOXIDE]	Not Active	Not Active	Not Active	Not Active	Not Active	Not Active	Not Active	Not Active	Not Active	Not Active	Not Active	Not Active	Not Active	Not Active				
COC(=O)[C@H](c1ccccc1Cl)N1CCc2sccc2C1 [CLOPIDOGREL]	Not Active	Not Active	Not Active	Not Active	Not Active	Not Active	Not Active	Not Active	Not Active	Not Active	Not Active	Not Active	Not Active	Not Active				
COc1ccc2c(c1)c(CC(=O)OCC(=O)O)c(C)n2C(=O)c1ccc(Cl)cc1 [ACEMETACIN]	Not Active	Not Active	Not Active	Not Active	Not Active	Not Active	Not Active	Not Active	Not Active	Not Active	Not Active	Not Active	Not Active	Not Active				
CC(C)(S)[C@@H](N)C(=O)O [PENICILLAMINE]	Not Active	Not Active	Not Active	Not Active	Not Active	Not Active	Not Active	Not Active	Not Active	Not Active	Not Active	Not Active	Not Active	Not Active				
CC1COc2c(N3CCN(C)CC3)c(F)cc3c(=O)c(C(=O)O)cn1c23 (centres undefined) [OFLOXACIN]	Not Active	Not Active	Not Active	Not Active	Not Active	Not Active	Not Active	Not Active	Not Active	Not Active	Not Active	Not Active	Not Active	Not Active				
Cc1[nH]cnc1CN1CCc2c(c3ccccc3n2C)C1=O [ALOSETRON]	Not Active	Not Active	Not Active	Not Active	Not Active	Not Active	Not Active	Not Active	Not Active	Not Active	Not Active	Not Active	Not Active	Not Active				
COc1ccc(CN(CCN(C)C)c2ccccn2)cc1 [PYRILAMINE]	Not Active	Not Active	Not Active	Not Active	Not Active		Not Active	Not Active	Not Active	Not Active	Not Active		Not Active	Not Active	5.53	5.95	5.95	6.23
NS(=O)(=O)c1cc2c(cc1Cl)NCNS2(=O)=O [HYDROCHLOROTHIAZIDE]	Not Active	Not Active	Not Active	Not Active	Not Active	Not Active	Not Active	Not Active	Not Active	Not Active	Not Active	Not Active	Not Active	Not Active				
CCCCCCCCCc1ccc(O)cc1 [4-NONYLPHENOL]	Not Active	Not Active	Not Active	Not Active	Not Active		Not Active	Not Active	Not Active	Not Active	Not Active		Not Active	Not Active	5.17	5.59	5.59	5.87
CN1C(C(=O)Nc2ccccn2)=C(O)c2ccccc2S1(=O)=O [PIROXICAM]	Not Active	Not Active	Not Active	Not Active	Not Active	Not Active	Not Active	Not Active	Not Active	Not Active	Not Active	Not Active	Not Active	Not Active				
